The source of these data is article PMC2794939 (Biochemistry, 2009).

For this test, the system named is influenza virus A/M2-V27A/L38F. Format: cell-based, Influenza A/Udorn/72 virus (recombinant mutant).
Consider `NC12CC3CC(CC(C3)C1)C2` [Amantadine, amantadine], for which the Plaque count was 82 plaques/well; the “effect on plaque formation (count and size)” value (“effect on plaque formation” below) is listed as “failed to inhibit plaque formation”.

As for `NC1CCC2(CCCCC2)CC1` [Compound 8, spiro[5.5]undecan-3-amine], the Plaque count amounted to 37 plaques/well; the “effect on plaque formation” value was “reduced”.

`C1CCC2(CC1)CCN(C1=NCCN1)CC2` [BL-1743, 2-[3-azaspiro([5],[5])undecanol]-2-imidazoline]: the Plaque count was found to be 86 plaques/well; the “effect on plaque formation” value was “failed to inhibit plaque formation”.
